Laboratory results as given in the supplement of paper PMC10307832.

Tests used:
Test in all cases: relative viability (nuclei count vs DMSO), 5 days (fraction); higher = more cells survive
Vemurafenib + Alpelisib = compound: CCCS(=O)(=O)Nc1ccc(F)c(C(=O)c2c[nH]c3ncc(-c4ccc(Cl)cc4)cc23)c1F [Vemurafenib] + Cc1nc(NC(=O)N2CCC[C@H]2C(N)=O)sc1-c1ccnc(C(C)(C)C(F)(F)F)c1 [Alpelisib] (partner 2 µM)
In short: (§1)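 Medians of duplicate plates are given as relative viability. That measure is the nuclei count in treated wells divided by the count in vehicle wells. Counts were taken on 4× images of lung cancer cell lines in 1536-well plates, 5 days after pin-tool dosing the day after seeding with one drug alone or a fixed anchor-drug dose plus five library-drug doses (not always all listed) in √10 steps.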

OSI-027 + Tozasertib = compound: COc1cccc2cc(-c3nc([C@H]4CC[C@H](C(=O)O)CC4)n4ncnc(N)c34)[nH]c12 [OSI-027] + Cc1cc(Nc2cc(N3CCN(C)CC3)nc(Sc3ccc(NC(=O)C4CC4)cc3)n2)n[nH]1 [Tozasertib] (partner 0.1 µM)
In short: as §1

Vemurafenib + Luminespib = compound: CCCS(=O)(=O)Nc1ccc(F)c(C(=O)c2c[nH]c3ncc(-c4ccc(Cl)cc4)cc23)c1F [Vemurafenib] + CCNC(=O)c1noc(-c2cc(C(C)C)c(O)cc2O)c1-c1ccc(CN2CCOCC2)cc1 [Luminespib] (partner 0.01 µM)
In short: as §1

OSI-027 + Navitoclax = compound: COc1cccc2cc(-c3nc([C@H]4CC[C@H](C(=O)O)CC4)n4ncnc(N)c34)[nH]c12 [OSI-027] + CC1(C)CCC(c2ccc(Cl)cc2)=C(CN2CCN(c3ccc(C(=O)NS(=O)(=O)c4ccc(N[C@H](CCN5CCOCC5)CSc5ccccc5)c(S(=O)(=O)C(F)(F)F)c4)cc3)CC2)C1 [Navitoclax] (partner 0.5 µM)
In short: as §1

Cell Line	relative viability (Vemurafenib + Alpelisib; first compound 0.03162 µM)	relative viability (Vemurafenib + Alpelisib; first compound 0.3162 µM)	relative viability (Vemurafenib + Alpelisib; first compound 1 µM)	relative viability (OSI-027 + Tozasertib; first compound 0.01 µM)	relative viability (OSI-027 + Tozasertib; first compound 0.03162 µM)	relative viability (OSI-027 + Tozasertib; first compound 0.1 µM)	relative viability (OSI-027 + Tozasertib; first compound 0.3162 µM)	relative viability (OSI-027 + Tozasertib; first compound 1 µM)	relative viability (Vemurafenib + Luminespib; first compound 0.03162 µM)	relative viability (Vemurafenib + Luminespib; first compound 0.3162 µM)	relative viability (Vemurafenib + Luminespib; first compound 1 µM)	relative viability (OSI-027 + Navitoclax; first compound 0.01 µM)	relative viability (OSI-027 + Navitoclax; first compound 0.03162 µM)	relative viability (OSI-027 + Navitoclax; first compound 0.1 µM)	relative viability (OSI-027 + Navitoclax; first compound 0.3162 µM)	relative viability (OSI-027 + Navitoclax; first compound 1 µM)	relative viability (Vemurafenib + Alpelisib; first compound 0.1 µM)	relative viability (Vemurafenib + Luminespib; first compound 0.1 µM)
NCI-H1993	0.62	0.585	0.647	0.574	0.56	0.546	0.49	0.456	0.465	0.773	0.86	0.89	0.863	0.659	0.502	0.719		
SW 1573	0.769	0.781	0.551	0.186	0.197	0.206	0.142	0.178	0.16	0.377	0.194	0.889	1.05	0.902	0.757	0.504	0.667	0.583
NCI-H2085	0.956	0.902	1	0.785	0.654	0.741	0.784	0.568	0.451	0.423	0.492	1.11	1.12	1.1	0.931	0.7	0.826	0.425
EPLC-272H	0.927	0.942	0.889	0.139	0.277	1.01	0.162	0.143	0.316	0.494	0.228	1.07	0.901	1.18	0.897	1.04	0.676	0.0941
HARA	0.801	0.879	0.823	0.472	0.099	0.115	0.0843	0.106	0.482	0.638	0.814	1.18	1.26	1.24	1.34	0.354		0.6
LU99A	0.518	0.52	0.423	0.249	0.302	0.252	0.239	0.175	0.224	0.259	0.288	0.754	0.651	0.695	0.427	0.154	0.486	0.282
NCI-H2087	1.08		1.07	0.228	0.254	0.257	0.234	0.188	0.166		0.162	1.09	0.998	0.8	0.537	0.353	1.02	0.185
NCI-H1734	0.598	0.602	0.603	0.299	0.271	0.265	0.222	0.24	0.196	0.233	0.2	0.749	0.836	0.785	0.746	0.384	0.7	0.183
HCC-44	0.761	0.784	0.795	0.945	0.859	1.05	0.84	0.685	0.915		1.07	0.966	0.982	0.96	0.833	0.383	0.755	1.19
NCI-H2170	0.735	0.692	0.712	0.71	0.658	0.603	0.733	0.435	0.58	0.559	0.545	0.651	0.565	0.471	0.535	0.221	0.301	0.486
PC-3 [JPC-3]	0.985	1.11	1.07	1.03	0.808	0.844	0.841	0.351	0.671	0.724	0.782	0.822	0.765	0.772	0.739	0.547		
NCI-H1651	0.903	0.896	0.909	0.669	0.642	0.801	0.692	0.591	0.91	0.946	0.84	1.07		0.935	0.836	0.341	0.831	1.05
NCI-H460	0.349	0.631	0.593	0.511	0.338	0.469	0.593	0.278	0.0379	0.0345	0.0293	1.21	1.06	1.3	0.789	0.0638	0.357	0.0333
NCI-H2228	0.964	0.905	0.627	0.246	0.242	0.242	0.207	0.16	0.148	0.19	0.172	0.978	1.34	0.81		0.303	0.752	0.161
LOU-NH91	0.713		0.734	0.656	0.617	0.571	0.658	0.484	0.301		0.412	0.758	0.712	0.69	0.653	0.513	0.487	
RERF-LC-KJ	0.583	0.873	0.771	0.453	0.531	0.477	0.468	0.385	1.26	1.26	1.31	0.795	1	0.839	0.672	0.289	0.686	0.991
EKVX	0.821	0.904	0.777	0.299	0.358	0.406	0.349	0.269	0.884	0.921	0.842	0.954	0.873	1.01	0.807	0.44		
NCI-H441	0.791		0.534	0.625	0.72	0.629	0.535	0.489	0.373	0.392	0.316	0.47	0.57	0.425	0.47	0.185	0.741	0.245

Cell Line	relative viability (Vemurafenib + Alpelisib; first compound 0.03162 µM)	relative viability (Vemurafenib + Alpelisib; first compound 0.3162 µM)	relative viability (Vemurafenib + Alpelisib; first compound 1 µM)	relative viability (OSI-027 + Tozasertib; first compound 0.01 µM)	relative viability (OSI-027 + Tozasertib; first compound 0.03162 µM)	relative viability (OSI-027 + Tozasertib; first compound 0.1 µM)	relative viability (OSI-027 + Tozasertib; first compound 0.3162 µM)	relative viability (OSI-027 + Tozasertib; first compound 1 µM)	relative viability (Vemurafenib + Luminespib; first compound 0.03162 µM)	relative viability (Vemurafenib + Luminespib; first compound 0.3162 µM)	relative viability (Vemurafenib + Luminespib; first compound 1 µM)	relative viability (OSI-027 + Navitoclax; first compound 0.01 µM)	relative viability (OSI-027 + Navitoclax; first compound 0.03162 µM)	relative viability (OSI-027 + Navitoclax; first compound 0.1 µM)	relative viability (OSI-027 + Navitoclax; first compound 0.3162 µM)	relative viability (OSI-027 + Navitoclax; first compound 1 µM)	relative viability (Vemurafenib + Alpelisib; first compound 0.1 µM)	relative viability (Vemurafenib + Luminespib; first compound 0.1 µM)
NCI-H1395	1.01		1.09	0.675	0.718	0.683	0.67	0.611	0.679		0.555	1.16	0.998	1.03	0.85	0.79	1.01	0.445
CAL-12T	1.07	1.4	1.33	0.377	0.287	0.317	0.294	0.212	0.375	0.228	0.847	1.36	1.18	1.3	1.08	0.5	1.21	0.345
201T	0.974	1.05	0.981	1	0.96	0.946	0.914	0.736	1.01	1.14	1.03	1.25	1.24	1.2	1.22	1.13	0.96	1.05
SK-LU-1	0.996	0.682	0.758	0.295	0.331	0.303	0.248	0.241	0.208	0.171	0.218	0.743	0.869	0.679	0.453	0.259	0.96	0.219
LC-2-ad	0.831	0.867	0.877	0.464	0.4	0.449	0.443	0.397	0.887		1.05	0.458	0.4	0.372	0.243	0.122	0.557	0.978
NCI-H1793	0.659	0.758	0.808	0.284	0.313	0.28	0.239	0.209	0.16	0.173	0.166	0.399	0.387	0.407	0.318	0.223		
NCI-H1944	0.811	0.85	0.837	0.239	0.251	0.22	0.221	0.175	0.665	0.736	0.663	1.1	1.04	1.03	0.963	0.719	0.572	0.601
SK-MES-1	0.829	0.723	0.776	0.923	0.842	0.807	0.744	0.402	0.866	0.646	0.745	1.27	1.23	1.17	0.974	0.484	0.574	0.553
NCI-H2347	1.01	0.757	1.04	0.362	0.467	0.58	0.564	0.317	0.626	0.552	0.71	0.916	0.764	0.609	0.626	0.333	1.02	0.164
PC-14	0.881	0.907	0.903	0.564	0.577	0.598	0.636	0.505	0.234	0.18	0.148	1.02	0.998	1.05	1.05	0.939		
LXF-289	1.02	1.05	1.03	0.17	0.209	0.201	0.195	0.133	0.647	0.661	0.689	1.03	0.973	1.01	0.921	0.582	1.02	0.584
NCI-H596	0.526	0.475	0.42	0.999	0.804	0.859	0.811	0.47	0.984	1.01	0.958	0.888	0.941	0.933	0.85	0.459	0.48	1.1
NCI-H1355	0.823	0.797	0.88	0.546	0.492	0.541	0.461	0.361	0.664	0.696	0.672	0.84	0.868	0.855	0.529	0.205	0.689	0.662
NCI-H727	0.519	0.849	0.574	0.584	0.65	0.716	0.725	0.456	0.309	0.313	0.353	0.406	0.418	0.477	0.378	0.318	0.49	
NCI-H2023	0.614	0.749	0.538	0.424	0.319	0.352	0.348	0.244	0.731	0.827	0.766	0.982	0.99	0.964	0.708	0.255	0.524	0.628
NCI-H2009	1.16	1.02	1.11	0.759	0.621	0.717	0.755	0.444	0.93	0.861	0.921	1.16	1.15	1.07	1.07	0.619	1.1	0.912
NCI-H322M	0.845	0.872	0.707	0.488	0.485	0.413	0.397	0.307	0.861		0.825	1.24	1.15	1.17	0.783	1.27		
